Measured values published in patent US20100120752A1, “MUSCARINIC AGONISTS TO TREAT IMPULSE CONTROL DISORDERS” (Solvay Pharmaceuticals, B.V., priority 2007, published 2010).

Experiments:
Type in all cases: in vivo, rat
[1] = test system: Male Wistar rats; assay: 5-Choice Serial Reaction Time task, MK801 alone; settings: for number of anticipatory responses / number of correct responses / number of fault responses / number of missed responses / percentage of correct responses / persevering responses / total number of responses: ±S.E.M.
Excerpt: (§1) Male Wistar rats weighing 330-450 g (Harlan, The Netherlands) were housed in pairs under a 12-h light/dark cycle (lights off at 7:00 a.m.) and had daily access to a limited amount of food that kept their body weight at approximately 85% of the free feeding weight. Water was available ad libitum. All procedures were in compliance with the European Communities Council Directive of Nov. 24, 1986 (86/609 EEC).
(§2) Standard 5-CSRT boxes from MED associates Inc. Georgia, Vt. US were used. The curved wall of the chamber contained five 1.6 cm2 holes, 2.2 cm deep, 2 cm above floor level. […] In every hole a yellow stimulus light was presented. A food dispenser was located at the opposite wall. The box was illuminated by a 28 Volt 100 mA house light. The 5-CSRT boxes were placed in sound attenuating cubicles. On-line control of the apparatus and data collection were performed by a MED-PC experimental apparatus programming system (Tatham, 1989), running on a Dell Optiplex GX1 PC.
(§3) Rats were first trained to collect reinforcement pellets from the food dispenser and to collect reinforcements that were placed in the 5 holes in order to habituate the animals to the 5-CSRT task apparatus. Next, training of the 5-CSRT task started. These sessions started by illumination of the light in one of the holes for 30 seconds (stimulus duration). A response by the rat into the illuminated hole or a response in that particular hole for a short period of time after the illumination (the limited hold 60 sec) was rewarded with the delivery of a food pellet, termination of the trial and a correct response was recorded. The light stimulus was presented in each of the holes 20 times during a session (total of 100 presentations), and the order of presentations was randomized. […] After termination of the trial a variable inter-trial interval was started (1, 3, 5, 7 or 9 sec) after which the next trial was started. Upon reaching a 75% correct performance level the duration of illumination of the light stimulus was reduced until a presentation of 0.5 sec (from 30 to 20, 10, 5, 2, 1, 0.9; 0.8; 0.7; 0.6; 0.5.) and a limited hold of 5 sec (in three steps from 30 to 20, 10 and 5 sec), was reached. (Robbins, 1993).
(§4) The following parameters were measured (Muir, 1996):
(§5) Accuracy: the percentage correct responses divided by the total responses made.
(§6) Errors of omission: the number of missed stimulus presentations.
(§7) Correct responses: the number of correct responses.
(§8) Fault responses: the number of responses in the wrong hole.
(§9) Anticipatory responses: the number of premature responses made preceding the presentation of the light stimulus.
(§10) Persevering responses: responses emitted after an incorrect or correct response.
MK801 was tested in a Latin hexagon design, meaning that each rat received all test dosages (0, 0.01, 0.025 and 0.05 mg/kg s.c.) in a random order.

[2] = test system: MK801 induced increase of anticipatory responses of rats; assay: 5-Choice Serial Reaction Time task, interaction studies against MK801
Excerpt: as §1, §2, §3, §4, §5, §6, §7, §8, §9, §10
Both xanomeline and desmethylclozapine were each tested in the same dose range against 0.05 mg/kg (s.c.) MK801, a dose shown to elicit unequivocal impulsive behavior (see Table 1).

[3] = test system: Male Wistar rats; assay: 5-Choice Serial Reaction Time task, xanomeline or desmethylclozapine alone; settings: for number of anticipatory responses / number of correct responses / number of fault responses / number of missed responses / percentage of correct responses / persevering responses / total number of responses: ±S.E.M.
Excerpt: as §1, §2, §3, §4, §5, §6, §7, §8, §9, §10
Xanomeline, a mixed muscarine-M1 and muscarine-M4 agonist, and desmethylclozapine, a muscarinic-M1 agonist and muscarinic-M4 antagonist, were each tested in a Latin hexagon design, meaning that each rat received all test-dosages (0, 1, 3 and 10 mg/kg i.p.) in a random order.

[4] = evident at 0.025 mg/kg and 0.05 mg/kg, p<0.05
[5] = first series, MK801 0.01 mg/kg s.c.
[6] = first series, MK801 0.025 mg/kg s.c.
[7] = first series, MK801 0.05 mg/kg s.c.
[8] = second series, MK801 0.01 mg/kg s.c.
[9] = second series, MK801 0.025 mg/kg s.c.
[10] = second series, MK801 0.05 mg/kg s.c.
[11] = 0.05 mg/kg (s.c.) MK801 with 0 mg/kg desmethylclozapine, ±SEM
[12] = 0.05 mg/kg (s.c.) MK801 with 0 mg/kg xanomeline, ±SEM
[13] = 1 mg/kg against 0.05 mg/kg (s.c.) MK801, ±SEM
[14] = 3 mg/kg against 0.05 mg/kg (s.c.) MK801, ±SEM
[15] = 10 mg/kg against 0.05 mg/kg (s.c.) MK801, ±SEM

With `CC12NC(Cc3ccccc31)c1ccccc12` (centres unmarked) [MK801, dizocilpine] the “effect on missed responses” value [1, 4] was “decreased”, the “effect on number of anticipatory responses” value [1, 4] was “boosted” and the “effect on persevering responses” value [1, 4] was “boosted”. For the same molecule, the “effect on total number of responses” value [1, 4] was “boosted”, the “number of anticipatory responses” value [1, 5] was 51.3 ± 5.4 and the “number of correct responses” value [1, 5] was 52.6 ± 3.3. The “number of fault responses” value [1, 5] was 19.8 ± 2.2, the “number of missed responses” value [1, 5] was 27.7 ± 3.3 and the “percentage of correct responses” value [1, 5] was 72.6 ± 2.8%. The persevering responses [1, 5] was 7.9 ± 1, the “total number of responses” value [1, 5] was 72.3 ± 3.3 and the “number of anticipatory responses” value [1, 6] was 73.2 ± 8.7. The “number of correct responses” value [1, 6] was 53.8 ± 3.9, the “number of fault responses” value [1, 6] was 22.6 ± 2.7 and the “number of missed responses” value [1, 6] was 23.6 ± 2.9. The “percentage of correct responses” value [1, 6] was 70.0 ± 3.7%, the persevering responses [1, 6] was 17.7 ± 4.1 and the “total number of responses” value [1, 6] was 76.4 ± 2.9. The “number of anticipatory responses” value [1, 7] was 148.6 ± 38.6, the “number of correct responses” value [1, 7] was 55.3 ± 3.2^ and the “number of fault responses” value [1, 7] was 26.0 ± 2.7^. For the same molecule, the “number of missed responses” value [1, 7] was 18.7 ± 3.1, the “percentage of correct responses” value [1, 7] was 68.0 ± 3% and the persevering responses [1, 7] was 28.2 ± 4.7. For the same molecule, the “total number of responses” value [1, 7] was 81.3 ± 3.1, the “number of anticipatory responses” value [1, 8] was 78.1 ± 14.8 and the “number of correct responses” value [1, 8] was 60.8 ± 2.1. The “number of fault responses” value [1, 8] was 21.8 ± 2.1, the “number of missed responses” value [1, 8] was 17.5 ± 2.1 and the “percentage of correct responses” value [1, 8] was 73.8 ± 2.3%. For the same molecule, the persevering responses [1, 8] was 11.1 ± 3.1, the “total number of responses” value [1, 8] was 82.5 ± 2.1 and the “number of anticipatory responses” value [1, 9] was 97.3 ± 16.2. The “number of correct responses” value [1, 9] was 62.7 ± 2.9, the “number of fault responses” value [1, 9] was 21.8 ± 1.9 and the “number of missed responses” value [1, 9] was 15.6 ± 1.9. For the same molecule, the “percentage of correct responses” value [1, 9] was 74.0 ± 2.5%, the persevering responses [1, 9] was 10.7 ± 1.7 and the “total number of responses” value [1, 9] was 84.4 ± 1.9. For the same molecule, the “number of anticipatory responses” value [1, 10] was 148.3 ± 29.8, the “number of correct responses” value [1, 10] was 62.3 ± 2.9^ and the “number of fault responses” value [1, 10] was 23.3 ± 2.3^. The “number of missed responses” value [1, 10] was 14.5 ± 1.8, the “percentage of correct responses” value [1, 10] was 72.7 ± 2.6^ % and the persevering responses [1, 10] was 18.8 ± 4.2. For the same molecule, the “total number of responses” value [1, 10] was 85.5 ± 1.8, the “effect on numbers of correct responses” value ([1]; summary of table 1) was “does not influence” and the “effect on numbers of fault responses” value ([1]; summary of table 1) was “does not influence”. The “% correct responses” value [2, 11] was 66.2 ± 3.8%, the nr anticipatory resp [2, 11] was 116.8 ± 19.9 and the “nr of correct resp” value [2, 11] was 53.8 ± 4.4. The “nr of fault resp” value [2, 11] was 25.9 ± 2.1, the “nr of missed resp” value [2, 11] was 20.3 ± 3.7 and the persevering resp [2, 11] was 20.2 ± 3.2. For the same molecule, the “total nr of resp” value [2, 11] was 79.7 ± 3.7, the “% correct resp” value [2, 12] was 66.9 ± 3.5% and the nr anticipatory resp [2, 12] was 133.8 ± 23.5. The “nr of correct resp” value [2, 12] was 53.3 ± 3.9, the “nr of fault resp” value [2, 12] was 25.9 ± 2.7 and the “nr of missed resp” value [2, 12] was 20.8 ± 3.4. For the same molecule, the persevering resp [2, 12] was 16.9 ± 2.6 and the “total nr of resp” value [2, 12] was 79.3 ± 3.4.

With `Clc1ccc2c(c1)N=C(N1CCNCC1)c1ccccc1N2` [desmethylclozapine] the “% correct resp” value [2, 13] was 67.2 ± 2.6%, the nr anticipatory resp [2, 13] was 141.8 ± 20.8 and the “nr of correct resp” value [2, 13] was 52.5 ± 3.4. The “nr of fault resp” value [2, 13] was 25.1 ± 1.9, the “nr of missed resp” value [2, 13] was 22.4 ± 3.1 and the persevering resp [2, 13] was 24.8 ± 2.8. For the same molecule, the “total nr of resp” value [2, 13] was 77.6 ± 3.1, the “% correct resp” value [2, 14] was 69.6 ± 2.6% and the nr anticipatory resp [2, 14] was 104.3 ± 18.4. The “nr of correct resp” value [2, 14] was 55.2 ± 2.8, the “nr of fault resp” value [2, 14] was 24.4 ± 2.4 and the “nr of missed resp” value [2, 14] was 20.4 ± 3.6. For the same molecule, the persevering resp [2, 14] was 16.3 ± 2.1, the “total nr of resp” value [2, 14] was 79.6 ± 3.6 and the “% correct resp” value [2, 15] was 70.1 ± 3.1%. For the same molecule, the nr anticipatory resp [2, 15] was 78.6 ± 14.5, the “nr of correct resp” value [2, 15] was 52.7 ± 3.9 and the “nr of fault resp” value [2, 15] was 21.6 ± 2.0. The “nr of missed resp” value [2, 15] was 25.8 ± 3.7, the persevering resp [2, 15] was 17.3 ± 3.4 and the “total nr of resp” value [2, 15] was 74.3 ± 3.7. For the same molecule, the “effect on increase in anticipatory responses induced by MK801” value ([2]; table 3) was “antagonize”, the “effect on increase in persevering responses induced by MK801” value ([2]; table 3) was “antagonize” and the “number of anticipatory responses” value ([3]; 1 mg/kg i.p.) was 50.2 ± 4.9. The “number of correct responses” value ([3]; 1 mg/kg i.p.) was 52.2 ± 3.2, the “number of fault responses” value ([3]; 1 mg/kg i.p.) was 19.4 ± 2.2 and the “number of missed responses” value ([3]; 1 mg/kg i.p.) was 28.4 ± 3.2. The “percentage of correct responses” value ([3]; 1 mg/kg i.p.) was 72.9 ± 3.1%, the persevering responses ([3]; 1 mg/kg i.p.) was 7.8 ± 1.4 and the “total number of responses” value ([3]; 1 mg/kg i.p.) was 71.6 ± 3.2. For the same molecule, the “number of anticipatory responses” value ([3]; 3 mg/kg i.p.) was 51.3 ± 7.5, the “number of correct responses” value ([3]; 3 mg/kg i.p.) was 51.9 ± 3.1 and the “number of fault responses” value ([3]; 3 mg/kg i.p.) was 20.1 ± 2.2. For the same molecule, the “number of missed responses” value ([3]; 3 mg/kg i.p.) was 28.0 ± 2.2, the “percentage of correct responses” value ([3]; 3 mg/kg i.p.) was 71.9 ± 3.2% and the persevering responses ([3]; 3 mg/kg i.p.) was 8.8 ± 1.2. The “total number of responses” value ([3]; 3 mg/kg i.p.) was 72.0 ± 2.2, the “number of anticipatory responses” value ([3]; 10 mg/kg i.p.) was 34.5 ± 3.9 and the “number of correct responses” value ([3]; 10 mg/kg i.p.) was 48.5 ± 3.9. For the same molecule, the “number of fault responses” value ([3]; 10 mg/kg i.p.) was 17.5 ± 2.0, the “number of missed responses” value ([3]; 10 mg/kg i.p.) was 34.0 ± 2.9 and the “percentage of correct responses” value ([3]; 10 mg/kg i.p.) was 72.6 ± 3.6%. The persevering responses ([3]; 10 mg/kg i.p.) was 5.5 ± 0.9, the “total number of responses” value ([3]; 10 mg/kg i.p.) was 66.0 ± 2.9 and the “effect on number of anticipatory responses” value ([3]; at 10 mg/kg, table 2) was “reduced”.
